Experimental data as given in patent US20230174608A1, “Polypeptide Derivative Having Dual Receptor Agonistic Action and Use Thereof” (TIANJIN INSTITUTE OF PHARMACEUTICAL RESEARCH CO., LTD., priority 2020, published 2023).
*1 amine or outer side, *2 acyl side, *3 side chain or, on linkers, in order; H or OH if unused. Where a SMILES comes first, the peptide text is derived from it. Side-chain parts run from the residue outwards. [ ]: non-standard residue; d: D form. The star is where a group is joined. γGlu = O=C(O)[C@H](CCC(=O)[*:2])N[*:1]; Palmitoyl = CCCCCCCCCCCCCCCC(=O)*; AEEA = NCCOCCOCC(=O)O; Aib = CC(C)(N)C(=O)O

Legend:
GLP-1R = target: T1, GLP-1R (Homo sapiens, UniProt P43220); test: GLP-1 receptor-mediated cAMP production in vitro; assay type: cell-based; details: HEK293 cell line stably expressing GLP-1R
T1 construct: expressed in transfected cells
T1 sequence (P43220 24-463, species assumed): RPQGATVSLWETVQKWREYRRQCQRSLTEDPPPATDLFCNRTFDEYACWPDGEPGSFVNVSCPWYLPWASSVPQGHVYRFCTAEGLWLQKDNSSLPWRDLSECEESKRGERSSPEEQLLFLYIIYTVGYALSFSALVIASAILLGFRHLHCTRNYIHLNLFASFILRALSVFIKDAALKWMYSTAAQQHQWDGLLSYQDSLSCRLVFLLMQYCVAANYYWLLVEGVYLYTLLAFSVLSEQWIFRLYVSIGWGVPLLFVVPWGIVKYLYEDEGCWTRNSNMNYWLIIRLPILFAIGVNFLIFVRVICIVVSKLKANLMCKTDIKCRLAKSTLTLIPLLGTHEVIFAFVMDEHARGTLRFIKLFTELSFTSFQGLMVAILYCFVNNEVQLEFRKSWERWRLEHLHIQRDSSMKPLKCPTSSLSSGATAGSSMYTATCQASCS
Protocol: (§1) HEK293 cell line stably expressing GLP-1R or GCGR was used for screening GLP-1R and GCGR agonist.
(§2) Preparation of test sample: each compound was prepared into 100 μM stock solution, and then gradually diluted to working concentrations of 1 μM, 100 nM, 10 nM, 1 nM, 10^−1 nM, 10^−2 nM, 10^−3 nM, and H2O.
(§3) 1) Each compound to be tested was mixed with a serum-free medium (containing 0.1% BSA and 0.5 mM IBMX) to obtain a solution at a concentration 2 times the working concentration.
(§4) 2) The cells were digested, suspended in a serum-free medium (containing 0.5 mM IBMX), counted, and placed in a 384-well plate at a density of 1,000 cells/5 μL/well, then 5 μL of the testing compound was added, and the plate was placed in dark for reaction for 30 min.
(§5) 3) After the reaction was completed, a substrate for detecting cAMP was added, and the plate was placed in dark for reaction at the room temperature for 60 min.
(§6) 4) After the reaction was completed, the plate was placed on the Envision2104 multifunctional microplate reader for detection, and the ratio of optical density (OD) values at 665 nm and 615 nm were read out.

GCGR = target: T2, GCGR (Homo sapiens, UniProt P47871); test: GC receptor-mediated cAMP production in vitro; assay type: cell-based; details: HEK293 cell line stably expressing GCGR
T2 construct: expressed in transfected cells
T2 sequence (P47871 26-477, species assumed): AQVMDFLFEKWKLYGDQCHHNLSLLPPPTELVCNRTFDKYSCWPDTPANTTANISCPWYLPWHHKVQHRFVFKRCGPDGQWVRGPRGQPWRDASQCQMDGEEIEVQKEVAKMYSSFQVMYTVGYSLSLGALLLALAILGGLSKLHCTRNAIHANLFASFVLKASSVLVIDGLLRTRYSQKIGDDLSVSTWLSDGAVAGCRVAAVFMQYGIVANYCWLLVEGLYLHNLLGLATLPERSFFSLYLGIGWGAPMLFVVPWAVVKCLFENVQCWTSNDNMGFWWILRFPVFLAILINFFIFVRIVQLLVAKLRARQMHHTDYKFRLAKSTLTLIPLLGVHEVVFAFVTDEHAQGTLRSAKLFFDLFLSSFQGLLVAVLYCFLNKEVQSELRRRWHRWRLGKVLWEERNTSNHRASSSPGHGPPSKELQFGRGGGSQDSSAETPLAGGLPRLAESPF
Protocol: as §1, §2, §3, §4, §5, §6

[1] = system: glucose loaded normal mice; test: Glucose loading test on normal mice after single administration; assay type: in vivo, Kunming mice; details: for Blood glucose reduction rate (%) / Blood glucose level after glucose loading: 30 nmol/kg single dose; for Blood glucose reduction rate (%): after glucose loading, versus model control group; for Blood glucose level after glucose loading: glucose 2.5 g/kg intragastric 60 min after administration, measured 30 min after loading; for Blood glucose level after glucose loading / Fasting blood glucose level: n=5; for Fasting blood glucose level: normal mice fasted 6 h, 30 nmol/kg group
Protocol: The hypoglycemic action of each compound of Example 1 was assessed by a glucose loading test on normal mice after single administration.
Method: Kunming mice (male, with a weight of 20-22 g) were acclimated in a barrier environment animal room for 3 days, divided into a blank control group, a model control group, a positive control group, and test compound groups, 5 mice in each group, and fasted for 6 h. Saline was administered to each mouse in the blank control group and the model control group, the compounds and a positive control drug were respectively administered to each mouse in the test compound groups and the positive control group at a dose of 30 nmol/kg, and the positive control drug was semaglutide. 60 min after administration, glucose was intragastrically administered to each mouse in the model control group, the positive control group, and the test compound groups at a dose of 2.5 g/kg (0.01 mL·g^−1 weight), distilled water was administered to each mouse in the blank control group, and blood glucose levels were determined 30 min after glucose loading.

SMILES	EC50 (GLP-1R) [nM]	EC50 (GCGR) [nM]	Blood glucose reduction rate (%) [1] [%]	Blood glucose level after glucose loading [1] [mmol/L]	Fasting blood glucose level [1] [mmol/L]
CCCCCCCCCCCCCCCC(=O)N[C@@H](CCC(=O)NCCCC[C@H](NC(=O)[C@H](C)NC(=O)[C@H](C)NC(=O)[C@H](CCCNC(=N)N)NC(=O)[C@H](CCC(=O)O)NC(=O)[C@H](CCC(=O)O)NC(=O)[C@H](CC(C)C)NC(=O)[C@H](Cc1ccc(O)cc1)NC(=O)[C@H](CCCCN)NC(=O)[C@H](CO)NC(=O)[C@H](Cc1ccc(O)cc1)NC(=O)[C@H](CC(=O)O)NC(=O)[C@H](CO)NC(=O)[C@@H](NC(=O)[C@H](Cc1ccccc1)NC(=O)[C@@H](NC(=O)CNC(=O)[C@H](CCC(N)=O)NC(=O)C(C)(C)NC(=O)[C@@H](N)Cc1c[nH]cn1)[C@@H](C)O)[C@@H](C)O)C(=O)N[C@@H](CCC(=O)O)C(=O)N[C@@H](Cc1ccccc1)C(=O)N[C@H](C(=O)N[C@@H](C)C(=O)N[C@@H](Cc1c[nH]c2ccccc12)C(=O)N[C@@H](CC(C)C)C(=O)N[C@@H](CCC(=O)O)C(=O)N[C@@H](CO)C(=O)NCC(=O)NCC(N)=O)[C@@H](C)CC)C(=O)O [dgc008] (HELM PEPTIDE1{H.[Aib].Q.G.T.F.T.S.D.Y.S.K.Y.L.E.E.R.A.A.K.E.F.I.A.W.L.E.S.G.G.[am]}|PEPTIDE2{[CCCCCCCCCCCCCCCC(=O)[*:2]].[gGlu]}$PEPTIDE1,PEPTIDE2,20:R3-2:R2$$$V2.0; N-terminus assumed)	0.742	2.03	48.70	8.72 ± 1.99	3.64 ± 1.00
CCCCCCCCCCCCCCCC(=O)N[C@@H](CCC(=O)N[C@@H](CCC(=O)NCCCC[C@H](NC(=O)[C@H](C)NC(=O)[C@H](C)NC(=O)[C@H](CCCNC(=N)N)NC(=O)[C@H](CCC(=O)O)NC(=O)[C@H](CC(=O)O)NC(=O)[C@H](CC(C)C)NC(=O)[C@H](Cc1ccc(O)cc1)NC(=O)[C@H](CCCCN)NC(=O)[C@H](CO)NC(=O)[C@H](Cc1ccc(O)cc1)NC(=O)[C@H](CC(=O)O)NC(=O)[C@H](CO)NC(=O)[C@@H](NC(=O)[C@H](Cc1ccccc1)NC(=O)[C@@H](NC(=O)CNC(=O)[C@H](CCC(N)=O)NC(=O)C(C)(C)NC(=O)[C@@H](N)Cc1c[nH]cn1)[C@@H](C)O)[C@@H](C)O)C(=O)N[C@@H](CCC(=O)O)C(=O)N[C@@H](Cc1ccccc1)C(=O)N[C@H](C(=O)N[C@@H](C)C(=O)N[C@@H](Cc1c[nH]c2ccccc12)C(=O)N[C@@H](CC(C)C)C(=O)N[C@@H](CCC(=O)O)C(=O)NCC(=O)NCC(N)=O)[C@@H](C)CC)C(=O)O)C(=O)O [dgc013] (HELM PEPTIDE1{H.[Aib].Q.G.T.F.T.S.D.Y.S.K.Y.L.D.E.R.A.A.K.E.F.I.A.W.L.E.G.G.[am]}|PEPTIDE2{[CCCCCCCCCCCCCCCC(=O)[*:2]].[gGlu].[gGlu]}$PEPTIDE1,PEPTIDE2,20:R3-3:R2$$$V2.0; N-terminus assumed)	0.319	1.99	45.53	9.26 ± 1.76	3.92 ± 0.51
CCCCCCCCCCCCCCCC(=O)N[C@@H](CCC(=O)NCCCC[C@H](NC(=O)[C@H](C)NC(=O)[C@H](C)NC(=O)[C@H](CCCNC(=N)N)NC(=O)[C@H](CCC(=O)O)NC(=O)[C@H](CCC(=O)O)NC(=O)[C@H](CC(C)C)NC(=O)[C@H](Cc1ccc(O)cc1)NC(=O)[C@H](CCCCN)NC(=O)[C@H](CO)NC(=O)[C@H](Cc1ccc(O)cc1)NC(=O)[C@H](CC(=O)O)NC(=O)[C@H](CO)NC(=O)[C@@H](NC(=O)[C@H](Cc1ccccc1)NC(=O)[C@@H](NC(=O)CNC(=O)[C@H](CCC(N)=O)NC(=O)C(C)(C)NC(=O)[C@@H](N)Cc1c[nH]cn1)[C@@H](C)O)[C@@H](C)O)C(=O)N[C@@H](CCC(=O)O)C(=O)N[C@@H](Cc1ccccc1)C(=O)N[C@H](C(=O)N[C@@H](C)C(=O)N[C@@H](Cc1c[nH]c2ccccc12)C(=O)N[C@@H](CC(C)C)C(=O)N[C@@H](CCC(=O)O)C(=O)NCC(=O)NCC(N)=O)[C@@H](C)CC)C(=O)O [dgc015] (HELM PEPTIDE1{H.[Aib].Q.G.T.F.T.S.D.Y.S.K.Y.L.E.E.R.A.A.K.E.F.I.A.W.L.E.G.G.[am]}|PEPTIDE2{[CCCCCCCCCCCCCCCC(=O)[*:2]].[gGlu]}$PEPTIDE1,PEPTIDE2,20:R3-2:R2$$$V2.0; N-terminus assumed)	0.899	1.53			
CCCCCCCCCCCCCCCC(=O)N[C@@H](CCC(=O)NCCCC[C@H](NC(=O)[C@H](C)NC(=O)[C@H](C)NC(=O)[C@H](CCCNC(=N)N)NC(=O)[C@H](CCC(=O)O)NC(=O)[C@H](CC(=O)O)NC(=O)[C@H](CC(C)C)NC(=O)[C@H](Cc1ccc(O)cc1)NC(=O)[C@H](CCCCN)NC(=O)[C@H](CO)NC(=O)[C@H](Cc1ccc(O)cc1)NC(=O)[C@H](CC(=O)O)NC(=O)[C@H](CO)NC(=O)[C@@H](NC(=O)[C@H](Cc1ccccc1)NC(=O)[C@@H](NC(=O)CNC(=O)[C@H](CCC(N)=O)NC(=O)C(C)(C)NC(=O)[C@@H](N)Cc1c[nH]cn1)[C@@H](C)O)[C@@H](C)O)C(=O)N[C@@H](CCC(=O)O)C(=O)N[C@@H](Cc1ccccc1)C(=O)N[C@H](C(=O)N[C@@H](C)C(=O)N[C@@H](Cc1c[nH]c2ccccc12)C(=O)N[C@@H](CC(C)C)C(=O)N[C@@H](CCC(=O)O)C(=O)NCC(=O)N[C@@H](CCC(=O)O)C(=O)NCC(N)=O)[C@@H](C)CC)C(=O)O [dgc018] (HELM PEPTIDE1{H.[Aib].Q.G.T.F.T.S.D.Y.S.K.Y.L.D.E.R.A.A.K.E.F.I.A.W.L.E.G.E.G.[am]}|PEPTIDE2{[CCCCCCCCCCCCCCCC(=O)[*:2]].[gGlu]}$PEPTIDE1,PEPTIDE2,20:R3-2:R2$$$V2.0; N-terminus assumed)	0.401	1.3			
CCCCCCCCCCCCCCCC(=O)N[C@@H](CCC(=O)NCCCC[C@H](NC(=O)[C@H](C)NC(=O)[C@H](C)NC(=O)[C@H](CCCNC(=N)N)NC(=O)[C@H](CCC(=O)O)NC(=O)[C@H](CCC(=O)O)NC(=O)[C@H](CC(C)C)NC(=O)[C@H](Cc1ccc(O)cc1)NC(=O)[C@H](CCCCN)NC(=O)[C@H](CO)NC(=O)[C@H](Cc1ccc(O)cc1)NC(=O)[C@H](CC(=O)O)NC(=O)[C@H](CO)NC(=O)[C@@H](NC(=O)[C@H](Cc1ccccc1)NC(=O)[C@@H](NC(=O)CNC(=O)[C@H](CCC(N)=O)NC(=O)C(C)(C)NC(=O)[C@@H](N)Cc1c[nH]cn1)[C@@H](C)O)[C@@H](C)O)C(=O)N[C@@H](CCC(=O)O)C(=O)N[C@@H](Cc1ccccc1)C(=O)N[C@H](C(=O)N[C@@H](C)C(=O)N[C@@H](Cc1c[nH]c2ccccc12)C(=O)N[C@@H](CC(C)C)C(=O)N[C@@H](CCC(=O)O)C(=O)NCC(=O)N[C@@H](CCC(=O)O)C(=O)NCC(N)=O)[C@@H](C)CC)C(=O)O [dgc019] (HELM PEPTIDE1{H.[Aib].Q.G.T.F.T.S.D.Y.S.K.Y.L.E.E.R.A.A.K.E.F.I.A.W.L.E.G.E.G.[am]}|PEPTIDE2{[CCCCCCCCCCCCCCCC(=O)[*:2]].[gGlu]}$PEPTIDE1,PEPTIDE2,20:R3-2:R2$$$V2.0; N-terminus assumed)	0.792	1.83			
CCCCCCCCCCCCCCCC(=O)N[C@@H](CCC(=O)NCCOCCOCC(=O)NCCOCCOCC(=O)NCCCC[C@H](NC(=O)[C@H](C)NC(=O)[C@H](C)NC(=O)[C@H](CCCNC(=N)N)NC(=O)[C@H](CCC(=O)O)NC(=O)[C@H](CCC(=O)O)NC(=O)[C@H](CC(C)C)NC(=O)[C@H](Cc1ccc(O)cc1)NC(=O)[C@H](CCCCN)NC(=O)[C@H](CO)NC(=O)[C@H](Cc1ccc(O)cc1)NC(=O)[C@H](CC(=O)O)NC(=O)[C@H](CO)NC(=O)[C@@H](NC(=O)[C@H](Cc1ccccc1)NC(=O)[C@@H](NC(=O)CNC(=O)[C@H](CCC(N)=O)NC(=O)C(C)(C)NC(=O)[C@@H](N)Cc1c[nH]cn1)[C@@H](C)O)[C@@H](C)O)C(=O)N[C@@H](CCC(=O)O)C(=O)N[C@@H](Cc1ccccc1)C(=O)N[C@H](C(=O)N[C@@H](C)C(=O)N[C@@H](Cc1c[nH]c2ccccc12)C(=O)N[C@@H](CC(C)C)C(=O)N[C@@H](CCC(=O)O)C(=O)NCC(=O)N[C@@H](CCC(=O)O)C(=O)NCC(N)=O)[C@@H](C)CC)C(=O)O [dgc021] (H-H[Aib]QGTFTSDYSKYLEERAAK([AEEA-AEEA-γGlu-Palmitoyl])EFIAWLEGEG-NH2; N-terminus assumed)	0.382	3.93			
